# Tests used:
# Assay type in all cases: in vivo
# [1] = system: Tetranychus urticae; assay: Tetranychus test (OP-resistant/spray treatment) on bean leaf disks
# Method: (§1) To produce a suitable preparation of active compound, 1 part by weight of active compound is mixed with the stated amounts of solvent and emulsifier, and the concentrate is diluted with emulsifier-containing water to the desired concentration.
# Disks of bean leaves (Phaseolus vulgaris) which are infested by all stages of the greenhouse red spider mite (Tetranychus urticae) are sprayed with an active compound preparation of the desired concentration.
# After the desired period of time, the activity in % is determined. 100% means that all spider mites have been killed; 0% means that none of the spider mites have been killed.
# [2] = system: Myzus persicae; assay: Myzus persicae test (spray on infested cabbage leaves)
# Method: (§2) To produce a suitable preparation of active compound, 1 part by weight of active compound is mixed with the stated amounts of solvents and emulsifier, and the concentrate is diluted with emulsifier-containing water to the desired concentration.
# Cabbage leaves (Brassica oleracea) which are heavily infested by the Green peach aphid (Myzus persicae), are treated by spraying with the active compound preparation of the desired concentration.
# (§3) After the desired period of time, the kill in % is determined. 100% means that all aphids have been killed; 0% means that none of the aphids have been killed. The kill rates determined are entered into Colby's formula.
# [3] = system: Aphis gossypii; assay: Aphis gossypii test (dipped cotton leaves)
# Method: as §1
# Cotton leaves (Gossypium herbaceum) which are heavily infested by the cotton aphid (Aphis gossypii) are treated by being dipped into the active compound preparation of the desired concentration.
# as §3
# [4] = system: Phaedon cochleariae; assay: Phaedon cochleariae larvae test (sprayed cabbage leaves)
# Method: as §2
# Cabbage leaves (Brassica oleracea) are treated by spraying with the active compound preparation of the desired concentration and are populated with larvae of the mustard beetle (Phaedon cochleariae) while the leaves are still moist.
# After the desired period of time, the kill in % is determined. 100% means that all beetle larvae have been killed; 0% means that none of the beetle larvae have been killed. The kill rates determined are entered into Colby's formula.
# [5] = system: Spodoptera frugiperda; assay: Spodoptera frugiperda larvae test (sprayed cabbage leaves)
# Method: as §2
# Cabbage leaves (Brassica oleracea) are treated by spraying with the active compound preparation of the desired concentration and are populated with larvae of the armyworm (Spodoptera frugiperda) while the leaves are still moist.
# After the desired period of time, the kill in % is determined. 100% means that all caterpillars have been killed; 0% means that none of the caterpillars have been killed. The kill rates determined are entered into Colby's formula.
structure (smiles),measurement,setting,value
"CC1(C)C(/C=C(\Cl)C(F)(F)F)C1C(=O)OC(C#N)c1cccc(Oc2ccccc2)c1 [L-cyhalothrin, lambda-cyhalothrin]",Kill in % after 6d,[1]; 0.032 g/ha,0%
same,Kill in % after 1d,[2]; 0.16 g/ha,10%
same,Kill in % after 1d,[3]; 0.16 ppm,20%
CC1(C)C(C=C(Cl)Cl)C1C(=O)OC(C#N)c1cccc(Oc2ccccc2)c1 (stereo not drawn) [alpha-cypermethrin],Kill in % after 6d,[4]; 0.8 g/ha,67%
Cc1c(COC(=O)C2C(/C=C(\Cl)C(F)(F)F)C2(C)C)cccc1-c1ccccc1 (stereo not shown) [bifenthrin],Kill in % after 1d,[2]; 0.0064 g/ha,0%
same,Kill in % after 6d,[5]; 0.8 g/ha,0%
CO[C@H]1CC[C@]2(CC1)NC(=O)C(c1cc(C)ccc1C)=C2O [compound (I)],Kill in % after 1d,[3]; 4 ppm,0%
CCOC(=O)OC1=C(c2cc(C)ccc2C)C(=O)N[C@]12CC[C@@H](OC)CC2 [compound (II)],Kill in % after 6d,[4]; 4 g/ha,0%
same,Kill in % after 6d,[4]; 20 g/ha,0%
same,Kill in % after 6d,[4]; 100 g/ha,50%
same,Kill in % after 6d,[1]; 0.8 g/ha,50%
same,Kill in % after 2d,[1]; 4 g/ha,50%
same,Kill in % after 6d,[1]; 4 g/ha,90%
same,Kill in % after 2d,[1]; 100 g/ha,70%
same,Kill in % after 1d,[2]; 0.8 g/ha,20%
same,Kill in % after 1d,[2]; 20 g/ha,0%
same,Kill in % after 6d,[5]; 20 g/ha,17%
same,Kill in % after 6d,[5]; 100 g/ha,67%
CCOC(=O)OC1=C(c2cc(C)ccc2C)C(=O)NC12CCC(OC)CC2 (stereo not shown) [compound (II-a)],Kill in % after 6d,[4]; 4 g/ha,0%
same,Kill in % after 6d,[4]; 20 g/ha,0%
same,Kill in % after 6d,[4]; 100 g/ha,83%
same,Kill in % after 6d,[1]; 0.8 g/ha,60%
same,Kill in % after 2d,[1]; 4 g/ha,30%
same,Kill in % after 6d,[1]; 4 g/ha,90%
same,Kill in % after 2d,[1]; 100 g/ha,40%
same,Kill in % after 1d,[2]; 0.8 g/ha,20%
same,Kill in % after 1d,[2]; 20 g/ha,0%
same,Kill in % after 6d,[5]; 20 g/ha,17%
same,Kill in % after 6d,[5]; 100 g/ha,50%
COC1CCC2(CC1)NC(=O)C(c1cc(C)ccc1C)=C2O (stereo not shown) [compound (Ia)],Kill in % after 1d,[3]; 4 ppm,0%
CC1(C)C(C=C(Cl)Cl)C1C(=O)OC(C#N)c1cccc(Oc2ccccc2)c1 (stereo not shown) [cypermethrin],Kill in % after 6d,[4]; 0.8 g/ha,17%
same,Kill in % after 6d,[5]; 0.8 g/ha,0%
CC1(C)[C@H](C(=O)O[C@H](C#N)c2cccc(Oc3ccccc3)c2)[C@@H]1C=C(Br)Br [deltamethrin],Kill in % after 2d,[1]; 0.032 g/ha,10%
CC1(C)[C@H](/C=C(\Cl)C(F)(F)F)[C@@H]1C(=O)O[C@H](C#N)c1cccc(Oc2ccccc2)c1 [gamma-cyhalothrin],Kill in % after 1d,[2]; 0.0064 g/ha,0%
CC1(C)C(C=C(Cl)Cl)C1C(=O)OC(C#N)c1cccc(Oc2ccccc2)c1 (stereo not shown) [zeta-cypermethrin],Kill in % after 6d,[4]; 0.16 g/ha,0%
"CC1(C)C(C=C(Cl)Cl)C1C(=O)OC(C#N)c1ccc(F)c(Oc2ccccc2)c1 (stereo not drawn) [β-cyfluthrin, betacyfluthrin]",Kill in % after 6d,[1]; 0.0064 g/ha,0%
same,Kill in % after 1d,[2]; 0.0064 g/ha,0%

# — patent US20090281157A1, “Active Ingredient Combinations With Insecticidal and Acaricidal Properties” (Bayer Cropscience AG, priority 2006, published 2009)
